According to patent US20230233583A1, “USE OF PHYTOCANNABINOIDS FOR TREATING MULTIPLE MYELOMA” (priority 2020, published 2023):

Tested on: MM cell lines U266, SKO and RPMI
Experiment: Annexin-V/PI staining, FACS analysis
Format: cell-based, human
Details: 48 hours, daily, CBG, CBN, CBDV 25 μM, CBC 75 μM
Experimental: Cell lines were treated for 48 hours with CBG (25 μM), CBN (25 μM), CBDV (25 μM) or CBC (75 μM) and the percentage of Annexin-V/PI positive cells were determined by FACS analysis. Values in overlays on each plot: upper left=necrotic cells; upper right=late death cells (both apoptotic and necrotic); lower left=live cells; and lower right=apoptotic cells. Data for each phytocannabinoid (lower plots in each Figure) expressed as percentage of PI positive cells with respect to vehicle treated cells (upper plots in each Figure).
Apoptosis assays and PI staining: Cell death was evaluated using the Annexin V-FITC Apoptosis detection Kit (eBioscience) followed by biparametric fluorescence-activated cell sorting (FACS) analysis. Cells, at a density of 4×10^4 cells/ml, were treated with CBG, CBC, CBN or CBDV for a maximum of 48 hours, with daily administration, and then incubated with Annexin V-FITC and propidium iodide (PI), following the protocol provided. The percentage of positive cells determined over 10,000 events was analysed on a FACScan cytofluorimeter using the CellQuest software.
Phytocannabinoids induce necrotic cell death in MM cell lines: To evaluate the cytotoxic mechanism induced by the phytocannabinoids, MM cell lines were treated daily with a cytotoxic dose for each phytocannabinoid (CBG: 25 μM; CBC 75 μM; CBN 25 μM; CBDV 25 μM) for 48 hours and then Annexin-V/PI cell positivity was evaluated by FACS analysis. The results evidenced that all of the phytocannabinoids induced necrotic cell death but had different efficacies (FIGS. 5-16). To confirm the necrotic cell death mechanism, MM cell lines were treated as above and DNA damage was evaluated by H2AX (a marker to examine the DNA damage produced and the subsequent repair of the DNA lesion) Western blot analysis and Comet assay (permits the analysis of DNA damage in single cell preparations). The result confirmed the DNA damage induced by the phytocannabinoid analysed. In particular, an increase of H2AX levels were observed by Western blot (FIGS. 17-20) and DNA damage by Comet assay that evidenced structures resembling comets in the treated cell lines (FIGS. 21-24).

| Structure (SMILES) | necrotic cell death (Annexin-V/PI positive cells), in words |
| --- | --- |
| CCCCCc1cc(O)c2c(c1)OC(C)(C)c1ccc(C)cc1-2 [CBN, 6,6,9-trimethyl-3-pentylbenzo[c]chromen-1-ol] | induce necrosis |
| C=C(C)[C@@H]1CCC(C)=C[C@H]1c1c(O)cc(CCC)cc1O [CBDV, 2-[(1R,6R)-3-methyl-6-prop-1-en-2-ylcyclohex-2-en-1-yl]-5-propylbenzene-1,3-diol] | induce necrosis |
| CCCCCc1cc(O)c(C/C=C(\C)CCC=C(C)C)c(O)c1 [CBG, 2-[(2E)-3,7-dimethylocta-2,6-dienyl]-5-pentylbenzene-1,3-diol] | induce necrosis |
| CCCCCc1cc(O)c2c(c1)OC(C)(CCC=C(C)C)C=C2 (stereo not shown) [CBC, 2-methyl-2-(4-methylpent-3-enyl)-7-pentylchromen-5-ol] | induce necrosis |
